≈ marks a conversion by molar mass, not a printed value. Calls of active or inactive are those of the source. The rule behind the calls is not given here.
Assays:
Escherichia coli [1] = assay: Antibacterial activity against Escherichia coli RCMB 010052 assessed as diameter of zone inhibition after 24 hrs by agar well diffusion assay; assay type: functional
Candida albicans [2] = assay: Antifungal activity against Candida albicans RCMB 05036 assessed as diameter of zone inhibition after 48 hrs by agar well diffusion assay; assay type: functional
[3] = tested on: Mycobacterium tuberculosis; assay: Antitubercular activity against Mycobacterium tuberculosis RCMB 010126 clinical isolate after 4 days by microplate alamar blue assay; assay type: functional; settings: for MIC: Mycobacterium tuberculosis, RCMB 010126, 96 h
Pseudomonas aeruginosa [4] = assay: Antibacterial activity against Pseudomonas aeruginosa RCMB 010043 assessed as diameter of zone inhibition after 24 hrs by agar well diffusion assay; assay type: functional
Staphylococcus aureus [5] = assay: Antibacterial activity against Staphylococcus aureus RCMB 010028 assessed as diameter of zone inhibition after 24 hrs by agar well diffusion assay; assay type: functional
Aspergillus fumigatus [6] = assay: Antifungal activity against Aspergillus fumigatus RCMB 02568 assessed as diameter of zone inhibition after 48 hrs by agar well diffusion assay; assay type: functional
[7] = Selectivity index, ratio of GI50 for mouse RAW264.7 cells to MIC for Mycobacterium aurum infected in mouse RAW264.7 cells; assay type: toxicity, cell-based; settings: read-out: Selectivity Index
Pseudomonas aeruginosa [8] = assay: Antibacterial activity against Pseudomonas aeruginosa RCMB 010043 after 24 hrs by serial dilution method; assay type: functional; settings: RCMB 010043, 24 h
Staphylococcus aureus [9] = assay: Antibacterial activity against Staphylococcus aureus RCMB 010028 after 24 hrs by serial dilution method; assay type: functional; settings: RCMB 010028, 24 h
[10] = Cytotoxicity against mouse RAW264.7 cells; assay type: cell-based
Candida albicans [11] = assay: Antifungal activity against Candida albicans RCMB 05036 after 24 hrs by serial dilution method; assay type: functional; settings: RCMB 05036, 24 h
Pseudomonas aeruginosa [12] = assay: Potency index, ratio of ciprofloxacin MIC to compound MIC for Pseudomonas aeruginosa RCMB 010043; assay type: functional
Escherichia coli [13] = assay: Antibacterial activity against Escherichia coli RCMB 010052 after 24 hrs by serial dilution method; assay type: functional; settings: RCMB 010052, 24 h
Mycolicibacterium aurum = assay: Antitubercular activity against Mycobacterium aurum infected in mouse RAW264.7 cells measured after 48 hrs; assay type: functional
[14] = Stability in mouse RAW264.7 cells measured after 48 hrs; assay type: ADME, cell-based; settings: raw264.7, 48 h
Aspergillus fumigatus [15] = assay: Antifungal activity against Aspergillus fumigatus RCMB 02568 after 24 hrs by serial dilution method; assay type: functional; settings: RCMB 02568, 24 h
Escherichia coli [16] = assay: Potency index, ratio of ciprofloxacin MIC to compound MIC for Escherichia coli RCMB 010052; assay type: functional
Staphylococcus aureus [17] = assay: Potency index, ratio of ciprofloxacin MIC to compound MIC for Staphylococcus aureus RCMB 010028; assay type: functional
[18] = tested on: Mycobacterium tuberculosis; assay: Potency index, ratio of isoniazid MIC to compound MIC for antitubercular activity against Mycobacterium tuberculosis RCMB 010126 clinical isolate; assay type: functional

Structure (SMILES)	diameter of the inhibition zone (DIZ) (Escherichia coli [1])	diameter of the inhibition zone (DIZ) (Candida albicans [2])	inhibition (INH) [3] [%]	diameter of the inhibition zone (DIZ) (Pseudomonas aeruginosa [4])	diameter of the inhibition zone (DIZ) (Staphylococcus aureus [5])	diameter of the inhibition zone (DIZ) (Aspergillus fumigatus [6])	MIC (Pseudomonas aeruginosa [8]) [µg/mL]	MIC (Staphylococcus aureus [9]) [µg/mL]	MIC [3] [µg/mL]	MIC (Candida albicans [11]) [µg/mL]	MIC (Escherichia coli [13]) [µg/mL]	MIC (Aspergillus fumigatus [15]) [µg/mL]	further results
CC(=O)c1sc(/N=C2\NC(=O)/C(=C/c3cn(C)c4ccccc34)S2)nc1C	15.9 mm	16.9 mm	34.32	14.2 mm	15.3 mm	16.2 mm	–	–	–	–	–	–	–
CCOC(=O)c1sc(/N=C2\NC(=O)/C(=C3/C(=O)N(C)c4ccccc43)S2)nc1C	21.5 mm	22.4 mm	76.35	21.5 mm	21.8 mm	21.6 mm	1.95 (≈ 4.55 µM)	1.95 (≈ 4.55 µM)	0.39 (≈ 0.91 µM)	0.98 (≈ 2.29 µM)	1.95 (≈ 4.55 µM)	1.95 (≈ 4.55 µM)	selectivity ratio [7]: 2.5; GI50 [10]: 500 µg/mL (≈ 1170 µM); Ratio (Pseudomonas aeruginosa [12]): 2; MIC (Mycolicibacterium aurum): 200 µg/mL (≈ 467 µM); Stability [14]: Stable
COc1ccc2c(c1)/C(=C1/S/C(=N/c3nc(C)c(C(C)=O)s3)NC1=O)C(=O)N2	22.4 mm	21.3 mm	64.35	21.4 mm	21.7 mm	20.8 mm	1.95 (≈ 4.7 µM)	1.95 (≈ 4.7 µM)	1.56 (≈ 3.76 µM)	1.95 (≈ 4.7 µM)	1.95 (≈ 4.7 µM)	1.95 (≈ 4.7 µM)	Ratio (Pseudomonas aeruginosa [12]): 2
CC(=O)c1sc(/N=C2\NC(=O)/C(=C3/C(=O)N(Cc4ccccc4)c4ccccc43)S2)nc1C	23.4 mm	22.5 mm	58.34	20.3 mm	21.2 mm	21.7 mm	3.9 (≈ 8.22 µM)	1.95 (≈ 4.11 µM)	1.56 (≈ 3.29 µM)	0.98 (≈ 2.07 µM)	0.98 (≈ 2.07 µM)	1.95 (≈ 4.11 µM)	Ratio (Escherichia coli [16]): 2
C[C@@H]1[C@H](O)[C@@H](C)/C=C/C=C/C=C/C=C/C=C/C=C/C=C/[C@H](O[C@@H]2O[C@H](C)[C@@H](O)[C@H](N)[C@@H]2O)C[C@@H]2O[C@](O)(C[C@@H](O)C[C@@H](O)[C@H](O)CC[C@@H](O)C[C@@H](O)CC(=O)O[C@H]1C)C[C@H](O)[C@H]2C(=O)O [AMPHOTERICIN B]	–	25.4 mm	–	–	–	23.7 mm	–	–	–	0.98 (≈ 1.06 µM)	–	1.95 (≈ 2.11 µM)	–
CC(=O)c1sc(/N=C2\NC(=O)/C(=C/c3c[nH]c4ccccc34)S2)nc1C	21.3 mm	20.9 mm	52.41	18.5 mm	18.9 mm	20.3 mm	7.81 (≈ 20.4 µM)	7.81 (≈ 20.4 µM)	3.12 (≈ 8.16 µM)	1.95 (≈ 5.1 µM)	1.95 (≈ 5.1 µM)	3.9 (≈ 10.2 µM)	–
CC(=O)c1sc(/N=C2\NC(=O)/C(=C3/C(=O)Nc4ccc(OC(F)(F)F)cc43)S2)nc1C	14.2 mm	16.2 mm	41.58	13.9 mm	14.3 mm	15.6 mm	–	–	12.5 (≈ 26.6 µM)	–	–	–	–
CCOC(=O)c1sc(/N=C2\NC(=O)/C(=C/c3cn(Cc4ccccc4)c4ccccc34)S2)nc1C	inactive	inactive	–	inactive	inactive	inactive	–	–	–	–	–	–	inhibition [3]: inactive
CC(=O)c1sc(/N=C2\NC(=O)/C(=C3/C(=O)Nc4ccc(F)cc43)S2)nc1C	20.6 mm	19.1 mm	43.26	19.1 mm	18.6 mm	18.1 mm	–	–	12.5 (≈ 31 µM)	–	–	–	–
CCOC(=O)c1sc(/N=C2\NC(=O)/C(=C3/C(=O)Nc4ccc(OC)cc43)S2)nc1C	22.6 mm	23.3 mm	84.35	22.1 mm	22.7 mm	22.1 mm	1.95 (≈ 4.39 µM)	0.98 (≈ 2.2 µM)	0.39 (≈ 0.877 µM)	0.98 (≈ 2.2 µM)	0.98 (≈ 2.2 µM)	1.95 (≈ 4.39 µM)	selectivity ratio [7]: < 0.312; Ratio (Staphylococcus aureus [17]): 2; GI50 [10]: > 62.5 µg/mL; Ratio (Pseudomonas aeruginosa [12]): 2; Ratio (Escherichia coli [16]): 2; MIC (Mycolicibacterium aurum): > 200 µg/mL; Ratio [18]: 2; Stability [14]: Stable
CCOC(=O)c1sc(/N=C2\NC(=O)/C(=C3/C(=O)N(C)c4ccc(Cl)cc43)S2)nc1C	22.3 mm	21.3 mm	68.31	21.5 mm	21.4 mm	20.8 mm	1.95 (≈ 4.21 µM)	1.95 (≈ 4.21 µM)	0.78 (≈ 1.68 µM)	1.95 (≈ 4.21 µM)	0.98 (≈ 2.12 µM)	3.9 (≈ 8.42 µM)	Ratio (Pseudomonas aeruginosa [12]): 2; Ratio (Escherichia coli [16]): 2
CC(=O)c1sc(/N=C2\NC(=O)/C(=C3/C(=O)Nc4ccc(Br)cc43)S2)nc1C	20.4 mm	18.8 mm	43.21	18.6 mm	18.5 mm	17.6 mm	–	–	12.5 (≈ 26.9 µM)	–	–	–	–
CC(=O)c1sc(/N=C2\NC(=O)/C(=C3/C(=O)Nc4ccccc43)S2)nc1C	22.8 mm	22.7 mm	63.24	19.9 mm	20.3 mm	21.5 mm	3.9 (≈ 10.1 µM)	3.9 (≈ 10.1 µM)	1.56 (≈ 4.06 µM)	0.98 (≈ 2.55 µM)	0.98 (≈ 2.55 µM)	1.95 (≈ 5.07 µM)	Ratio (Escherichia coli [16]): 2
CCOC(=O)c1sc(/N=C2\NC(=O)/C(=C3/C(=O)Nc4ccc(Br)cc43)S2)nc1C	21.1 mm	21.3 mm	86.31	19.4 mm	20.1 mm	20.6 mm	3.9 (≈ 7.9 µM)	3.9 (≈ 7.9 µM)	1.56 (≈ 3.16 µM)	1.95 (≈ 3.95 µM)	1.95 (≈ 3.95 µM)	3.9 (≈ 7.9 µM)	–
CC(=O)c1sc(/N=C2\NC(=O)/C(=C/c3cn(Cc4ccccc4)c4ccccc34)S2)nc1C	20.3 mm	16.2 mm	56.35	17.3 mm	20.6 mm	20.3 mm	15.6 (≈ 33.1 µM)	1.95 (≈ 4.13 µM)	1.56 (≈ 3.3 µM)	31.2 (≈ 66.1 µM)	3.9 (≈ 8.25 µM)	3.9 (≈ 8.25 µM)	–
CCOC(=O)c1sc(/N=C2\NC(=O)/C(=C/c3cn(C)c4ccccc34)S2)nc1C	inactive	inactive	–	inactive	inactive	inactive	–	–	–	–	–	–	inhibition [3]: inactive
CCOC(=O)c1sc(/N=C2\NC(=O)/C(=C3/C(=O)Nc4ccc(F)cc43)S2)nc1C	21.5 mm	22.1 mm	62.15	20.2 mm	20.5 mm	21.3 mm	3.9 (≈ 9.02 µM)	3.9 (≈ 9.02 µM)	1.56 (≈ 3.61 µM)	1.95 (≈ 4.51 µM)	1.95 (≈ 4.51 µM)	1.95 (≈ 4.51 µM)	–
NNC(=O)c1ccncc1 [ISONIAZID]	–	–	–	–	–	–	–	–	0.78 (≈ 5.69 µM)	–	–	–	–
CCOC(=O)c1sc(/N=C2\NC(=O)/C(=C/c3c[nH]c4ccccc34)S2)nc1C	21.3 mm	20.9 mm	46.35	18.5 mm	18.9 mm	20.3 mm	7.81 (≈ 18.9 µM)	3.9 (≈ 9.45 µM)	6.24 (≈ 15.1 µM)	1.95 (≈ 4.73 µM)	1.95 (≈ 4.73 µM)	3.9 (≈ 9.45 µM)	–
